According to patent US20040116420A1 (priority 2001, published 2004):

How the values were obtained:
HSV-1 = assay: Antiviral activity, HSV-1 in Vero cells, plaque method; assay type: cell-based; conditions: 90% inhibition of plaque formation
Outline: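 This is a virus-yield read-out. The culture medium was frozen at −80° C and thawed, and the plaques it formed were counted. It came from Vero monolayers infected with 50,000 pfu HSV-1 and then exposed to the compound for 20 h at 37° C. EC90 is the concentration inhibiting 90% of plaque formation relative to the untreated infected control.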

Vero cells = assay: Cytotoxicity, Vero cells, Alamar Blue; assay type: cell-based; conditions: 25 μM, 20 hours
Outline: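 Living-cell ratio versus untreated control was read by Alamar Blue absorbance after about 6 h of dye incubation. Before that, Vero cells had received 25 μM test compound in 2% FBS-DMEM for 20 hours at 37 °C under 5% CO2.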

HSV-1 protease = target: T1, HSV-1 protease (Human herpesvirus 1, UniProt P10210); assay: Enzymatic assay for HSV-1 protease (assembly) inhibitor, fluorescence polarization; assay type: biochemical; conditions: read-out: HSV-1 Enzyme inhibition IC50
T1 construct: 6xHis (N); made in house; host or cells: baculovirus expression system
T1 sequence (P10210 1-247): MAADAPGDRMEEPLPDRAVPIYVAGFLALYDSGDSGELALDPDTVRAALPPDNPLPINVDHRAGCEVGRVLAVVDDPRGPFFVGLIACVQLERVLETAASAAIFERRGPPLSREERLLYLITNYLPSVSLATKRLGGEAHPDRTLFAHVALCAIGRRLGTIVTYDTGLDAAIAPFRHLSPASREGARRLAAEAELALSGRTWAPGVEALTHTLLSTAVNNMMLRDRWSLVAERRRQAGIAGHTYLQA
Outline: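 Fluorescence polarization read-out: after avidin stop, cleavage of a biotinylated DTAF-labelled release-site peptide by recombinant N-His6 HSV-1 protease was compared with no-inhibitor wells. Enzyme and compound were preincubated 30 min, then substrate reacted 60 min, all at room temperature, pH 7.4 citrate buffer with TCEP.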

[1] = Human alphaherpesvirus 1, 20 hours

SMILES | EC90 (HSV-1; [1]) | IC50 (HSV-1 protease) | Cell viability (% of control) (Vero cells) | EC90 (HSV-1; 20 hours)
Cc1c(NC(=O)OC(C)(C)C)ccc2nc(N[C@@H](CC(C)C)C(=O)N(C)CCc3cccnc3)oc(=O)c12 [Compound No.68, (5-Methyl-2-{3-methyl-1S-[methyl-(2-pyridin-3-yl-ethyl)-carbamoyl]-butylamino}-4-oxo-4H-benzo[d][1,3]oxazin-6-yl)-carbamic acid tert-butyl ester] | 6.1 µM | 2000 nM | 66.9% | –
Cc1c(NC(=O)OC(C)(C)C)ccc2nc(N[C@@H](CC3CCCCC3)C(=O)NCc3cccnc3)oc(=O)c12 [Compound No.27, (2-{2-Cyclohexyl-1S-[(pyridin-3-ylmethyl)-carbamoyl]-ethylamino}-5-methyl-4-oxo-4H-benzo[d][1,3]oxazin-6-yl)-carbamic acid tert-butyl ester] | > 25 µM | 8700 nM | 103.0% | –
Cc1c(NC(=O)OC(C)(C)C)ccc2nc(N3CCC[C@H]3C(=O)N(C)CCc3cccnc3)oc(=O)c12 [Compound No.92, (5-Methyl-2-{2S-[methyl-(2-pyridin-3-yl-ethyl)-carbamoyl]-pyrrolidin-1-yl}-4-oxo-4H-benzo[d][1,3]oxazin-6-yl)-carbamic acid tert-butyl ester] | > 12.5 µM | > 20000 nM | 87.2% | –
Cc1c(NC(=O)OC(C)(C)C)ccc2nc(N[C@@H](Cc3ccccc3)C(=O)NCc3cccnc3)oc(=O)c12 [Compound No.30, (5-Methyl-4-oxo-2-{2-phenyl-1S-[(pyridin-3-ylmethyl)-carbamoyl]-ethylamino}-4H-benzo[d][1,3]oxazin-6-yl)-carbamic acid tert-butyl ester] | 23.8 µM | 700 nM | 98.6% | –
Cc1c(NC(=O)OC(C)(C)C)ccc2nc(N[C@@H](Cc3ccccc3)C(=O)N(C)CCc3cccnc3)oc(=O)c12 [Compound No.64, (5-Methyl-2-{1S-[methyl-(2-pyridin-3-yl-ethyl)-carbamoyl]-2-phenyl-ethylamino}-4-oxo-4H-benzo[d][1,3]oxazin-6-yl)-carbamic acid tert-butyl ester] | 5.1 µM | 800 nM | 70.1% | –
Cc1c(NC(=O)OC(C)(C)C)ccc2nc(N[C@@H](CC3CCCCC3)C(=O)NCc3ccncc3)oc(=O)c12 [Compound No.28, (2-{2-Cyclohexyl-1S-[(pyridin-4-ylmethyl)-carbamoyl]-ethylamino}-5-methyl-4-oxo-4H-benzo[d][1,3]oxazin-6-yl)-carbamic acid tert-butyl ester] | < 6.3 µM | 4400 nM | 70.0% | –
Cc1c(NC(=O)OC(C)(C)C)ccc2nc(N3CCC[C@H]3C(=O)NCc3ccncc3)oc(=O)c12 [Compound No.88, (5-Methyl-4-oxo-2-{2S-[(pyridin-4-ylmethyl)-carbamoyl]-pyrrolidin-1-yl}-4H-benzo[d][1,3]oxazin-6-yl)-carbamic acid tert-butyl ester] | – | 2700 nM | 74.1% | > 12.5 µM
Cc1c(NC(=O)OC(C)(C)C)ccc2nc(N[C@@H](CC3CCCCC3)C(=O)N(C)CCc3ccccn3)oc(=O)c12 [Compound No.47, (2-{2-cyclohexyl-1S-[methyl-(2-pyridin-2-yl-ethyl)-carbamoyl]-ethylamino}-5-methyl-4-oxo-4H-benzo[d][1,3]oxazin-6-yl)-carbamic acid tert-butyl ester] | < 3.2 µM | 2900 nM | 36.7% | –
Cc1c(NC(=O)OC(C)(C)C)ccc2nc(N(C)[C@@H](C)C(=O)N(C)CCc3ccccn3)oc(=O)c12 [Compound No.76, [5-Methyl-2-(methyl-{1S-[methyl-(2-pyridin-2-yl-ethyl)-carbamoyl]-ethyl}-amino)-4-oxo-4H-benzo[d][1,3]oxazin-6-yl]-carbamic acid tert-butyl ester] | > 12.5 µM | 2100 nM | 87.9% | –

Continued, in another order:

EC90 (HSV-1; [1]) | IC50 (HSV-1 protease) | SMILES | Cell viability (% of control) (Vero cells) | EC90 (HSV-1; 20 hours)
6.3 µM | 1800 nM | Cc1c(NC(=O)c2cccc(Cl)c2)ccc2nc(NC(C)(C)C(=O)N(C)CCc3ccccn3)oc(=O)c12 [Compound No.152, 3-Chloro-N-(5-methyl-2-{1-methyl-1-[methyl-(2-pyridin-2-yl-ethyl)-carbamoyl]-ethylamino}-4-oxo-4H-benzo[d][1,3]oxazin-6-yl)-benzamide] | 30.9% | –
> 12.5 µM | 3700 nM | Cc1c(NC(=O)c2cccc(C#N)c2)ccc2nc(NC(C)(C)C(=O)N(C)CCc3ccccn3)oc(=O)c12 [Compound No.143, 3-Cyano-N-(5-methyl-2-{1-methyl-1-[methyl-(2-pyridin-2-yl-ethyl)-carbamoyl]-ethylamino}-4-oxo-4H-benzo[d][1,3]oxazin-6-yl)-benzamide] | 86.9% | –
10.2 µM | 1600 nM | Cc1c(NC(=O)c2ccccc2F)ccc2nc(NC(C)(C)C(=O)N(C)CCc3ccccn3)oc(=O)c12 [Compound No.147, 2-Fluoro-N-(5-methyl-2-{1-methyl-1-[methyl-(2-pyridin-2-yl-ethyl)-carbamoyl]-ethylamino}-4-oxo-4H-benzo[d][1,3]oxazin-6-yl)-benzamide] | 70.2% | –
5.8 µM | 1200 nM | CCCc1ccc(C(=O)Nc2ccc3nc(NC(C)(C)C(=O)N(C)CCc4ccccn4)oc(=O)c3c2C)cc1 [Compound No.166, N-(5-Methyl-2-{1-methyl-1-[methyl-(2-pyridin-2-yl-ethyl)-carbamoyl]-ethylamino}-4-oxo-4H-benzo[d][1,3]oxazin-6-yl)-4-propyl-benzamide] | 15.9% | –
11.8 µM | 6700 nM | Cc1c(NC(=O)c2ccc3ccccc3c2)ccc2nc(NC(C)(C)C(=O)N(C)CCc3ccccn3)oc(=O)c12 [Compound No.194, Naphthalene-2-carboxylic acid (5-methyl-2-{1-methyl-1-[methyl-(2-pyridin-2-yl-ethyl)-carbamoyl]-ethylamino}-4-oxo-4H-benzo[d][1,3]oxazin-6-yl)-amide] | 71.8% | –
5.4 µM | 2400 nM | Cc1c(NC(=O)c2ccc(Br)cc2)ccc2nc(NC(C)(C)C(=O)N(C)CCc3ccccn3)oc(=O)c12 [Compound No.154, 4-Bromo-N-(5-methyl-2-{1-methyl-1-[methyl-(2-pyridin-2-yl-ethyl)-carbamoyl]-ethylamino}-4-oxo-4H-benzo[d][1,3]oxazin-6-yl)-benzamide] | 28.3% | –
5.9 µM | > 10000 nM | Cc1c(NC(=O)OC(C)(C)C)ccc2nc(N3C[C@H](OCc4ccccc4)C[C@H]3C(=O)N(C)CCc3ccccn3)oc(=O)c12 [Compound No.114, (2-{4R-Benzyloxy-2S-[methyl-(2-pyridin-2-yl-ethyl)-carbamoyl]-pyrrolidin-1-yl}-5-methyl-4-oxo-4H-benzo[d][1,3]oxazin-6-yl)-carbamic acid tert-butyl ester] | 76.5% | –
11.5 µM | 800 nM | CCCCCCCC(=O)Nc1ccc2nc(NC(C)(C)C(=O)N(C)CCc3ccccn3)oc(=O)c2c1C [Compound No.196, Octanoic acid (5-methyl-2-{1-methyl-1-[methyl-(2-pyridin-2-yl-ethyl)-carbamoyl]-ethylamino}-4-oxo-4H-benzo[d][1,3]oxazin-6-yl)-amide] | 86.5% | –
6 µM | 1300 nM | Cc1c(NC(=O)c2cccc(C(F)(F)F)c2)ccc2nc(NC(C)(C)C(=O)N(C)CCc3ccccn3)oc(=O)c12 [Compound No.145, N-(5-Methyl-2-{1-methyl-1-[methyl-(2-pyridin-2-yl-ethyl)-carbamoyl]-ethylamino}-4-oxo-4H-benzo[d][1,3]oxazin-6-yl)-3-trifluoromethyl-benzamide] | 19.7% | –
> 12.5 µM | 8000 nM | Cc1c(NC(=O)c2cccc([N+](=O)[O-])c2)ccc2nc(NC(C)(C)C(=O)N(C)CCc3ccccn3)oc(=O)c12 [Compound No.141, N-(5-Methyl-2-{1-methyl-1-[methyl-(2-pyridin-2-yl-ethyl)-carbamoyl]-ethylamino}-4-oxo-4H-benzo[d][1,3]oxazin-6-yl)-3-nitro-benzamide] | 80.4% | –
12.4 µM | 1300 nM | Cc1c(NC(=O)c2cccc3ccccc23)ccc2nc(NC(C)(C)C(=O)N(C)CCc3ccccn3)oc(=O)c12 [Compound No.190, Naphthalene-1-carboxylic acid (5-methyl-2-{1-methyl-1-[methyl-(2-pyridin-2-yl-ethyl)-carbamoyl]-ethylamino}-4-oxo-4H-benzo[d][1,3]oxazin-6-yl)-amide] | 74.5% | –
3.2 µM | 1600 nM | Cc1c(NC(=O)c2cccc(Br)c2)ccc2nc(NC(C)(C)C(=O)N(C)CCc3ccccn3)oc(=O)c12 [Compound No.200, 3-Bromo-N-(5-methyl-2-{1-methyl-1-[methyl-(2-pyridin-2-yl-ethyl)-carbamoyl]-ethylamino}-4-oxo-4H-benzo[d][1,3]oxazin-6-yl)-benzamide] | 21.5% | –
